In the Kinase Knowledgebase extract (Sharma et al. 2016):

Target: ROCK2 (human) (UniProt O75116)
Assay: Inhibition of ROCK2 Kinase Activity

Sequence of ROCK2 (human) (O75116 whole entry, looked up): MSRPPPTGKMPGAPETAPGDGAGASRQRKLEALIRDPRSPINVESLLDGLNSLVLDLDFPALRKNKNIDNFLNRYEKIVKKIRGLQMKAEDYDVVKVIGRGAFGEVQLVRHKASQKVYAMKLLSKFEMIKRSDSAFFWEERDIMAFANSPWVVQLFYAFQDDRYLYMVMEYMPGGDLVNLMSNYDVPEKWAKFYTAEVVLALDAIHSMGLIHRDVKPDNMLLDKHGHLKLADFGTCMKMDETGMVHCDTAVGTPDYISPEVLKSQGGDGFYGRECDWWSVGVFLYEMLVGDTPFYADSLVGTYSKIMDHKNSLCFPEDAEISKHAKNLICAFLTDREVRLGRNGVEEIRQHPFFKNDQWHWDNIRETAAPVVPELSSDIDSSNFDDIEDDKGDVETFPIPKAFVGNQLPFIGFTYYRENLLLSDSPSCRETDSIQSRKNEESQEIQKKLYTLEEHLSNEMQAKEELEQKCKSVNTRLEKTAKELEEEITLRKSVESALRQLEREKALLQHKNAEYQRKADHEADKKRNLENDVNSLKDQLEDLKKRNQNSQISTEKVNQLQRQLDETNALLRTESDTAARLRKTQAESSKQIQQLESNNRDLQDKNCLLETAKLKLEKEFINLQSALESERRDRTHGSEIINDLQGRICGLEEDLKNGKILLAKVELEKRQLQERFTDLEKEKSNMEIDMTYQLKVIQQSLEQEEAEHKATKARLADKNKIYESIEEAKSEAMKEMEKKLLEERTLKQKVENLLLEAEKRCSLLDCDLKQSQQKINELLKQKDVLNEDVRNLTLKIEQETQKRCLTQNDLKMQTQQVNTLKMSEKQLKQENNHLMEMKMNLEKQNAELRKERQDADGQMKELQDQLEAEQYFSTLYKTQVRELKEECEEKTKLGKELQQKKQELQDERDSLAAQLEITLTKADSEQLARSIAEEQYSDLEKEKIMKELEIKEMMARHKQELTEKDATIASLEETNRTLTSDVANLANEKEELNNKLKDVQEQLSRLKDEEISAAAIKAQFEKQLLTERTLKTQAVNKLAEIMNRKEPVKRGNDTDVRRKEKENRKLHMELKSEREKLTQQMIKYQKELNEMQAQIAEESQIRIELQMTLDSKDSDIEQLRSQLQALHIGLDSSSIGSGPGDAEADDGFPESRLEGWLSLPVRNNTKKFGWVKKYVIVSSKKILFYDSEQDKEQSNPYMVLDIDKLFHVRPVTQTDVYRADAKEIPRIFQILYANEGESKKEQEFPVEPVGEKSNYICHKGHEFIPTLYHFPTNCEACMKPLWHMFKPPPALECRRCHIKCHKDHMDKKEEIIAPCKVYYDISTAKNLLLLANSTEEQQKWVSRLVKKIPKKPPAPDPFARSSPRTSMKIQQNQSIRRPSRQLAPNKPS

| SMILES | IC50 [µM] |
| --- | --- |
| O=C(NCc1nc(-c2c[nH]c3ncccc23)n[nH]1)c1ccc(O)cc1O | ≤ 5 |
| Cc1ccc(C(=O)NCc2nc(-c3ccncc3)n[nH]2)c(O)c1 | ≤ 5 |
| O=C(Cc1ccccc1O)NCc1nc(-c2ccncc2)n[nH]1 | > 5 |
| CC(=O)Nc1cccc(C(=O)NCc2nc(-c3ccncc3)n[nH]2)c1 | > 5 |
| O=C(NCc1nc(-c2c[nH]c3ncccc23)n[nH]1)c1cccc2ccccc12 | > 5 |
| O=C(NCc1nc(-c2c[nH]c3ncccc23)n[nH]1)c1cc2ccccc2s1 | > 5 |
| CC(=O)Oc1cccc(C(=O)NCc2nc(-c3c[nH]c4ncccc34)n[nH]2)c1 | > 5 |
| CC(C)(C)OC(=O)NC[C@H](NC(=O)c1ccc(O)cc1O)c1nc(-c2ccncc2)n[nH]1 | ≤ 5 |
| O=C(Cc1ccccc1)NCc1nc(-c2c[nH]c3ncccc23)n[nH]1 | > 5 |
| O=C(NCc1nc(-c2ccncc2)n[nH]1)c1cccc(O)c1O | > 5 |
| Cc1ccc(C(=O)NCc2nc(-c3ccncc3)n[nH]2)cc1Br | > 5 |
| Cc1ccc(C)c(C(=O)NCc2nc(-c3c[nH]c4ncccc34)n[nH]2)c1 | > 5 |
| O=C(CC1Cc2ccccc2C1)NCc1nc(-c2ccncc2)n[nH]1 | > 5 |
| CCCCCCCC(=O)NCc1nc(-c2ccncc2)n[nH]1 | > 5 |
| O=C(NCc1nc(-c2ccncc2)n[nH]1)c1cccc2c1OCC2 | > 5 |
| O=C(NCc1nc(-c2c[nH]c3ncccc23)n[nH]1)C1CCc2ccccc21 (stereo not drawn) | > 5 |
| Cc1cccc(C(=O)NCc2nc(-c3ccncc3)n[nH]2)c1O | ≤ 5 |
| O=C(NCc1nc(-c2ccncc2)n[nH]1)c1ccccc1 | > 5 |
| COc1ccc(OC)c(C(=O)NCc2nc(-c3ccncc3)n[nH]2)c1 | > 5 |
| COc1cc(C(=O)NCc2nc(-c3c[nH]c4ncccc34)n[nH]2)cc(OC)c1OC | > 5 |
| O=C(NCc1nc(-c2ccncc2)n[nH]1)c1cc(F)ccc1[N+](=O)[O-] | > 5 |
| CC(=O)c1ccccc1C(=O)NCc1nc(-c2ccncc2)n[nH]1 | > 5 |

| SMILES | IC50 [µM] |
| --- | --- |
| O=C(NCc1nc(-c2ccncc2)n[nH]1)c1cc(F)c(F)c(O)c1F | > 5 |
| CC(C)(C)OC(=O)N1CCCCC1C(=O)NCc1nc(-c2c[nH]c3ncccc23)n[nH]1 (stereo not drawn) | > 5 |
| COc1ccc(Br)c(C(=O)NCc2nc(-c3c[nH]c4ncccc34)n[nH]2)c1 | > 5 |
| O=C(NCc1nc(-c2ccncc2)n[nH]1)c1ccc(OCc2ccccc2)cc1 | > 5 |
| CCN(CC)c1ccc(C(=O)NCc2nc(-c3ccncc3)n[nH]2)cc1 | > 5 |
| O=S(=O)(NCc1nc(-c2ccncc2)n[nH]1)c1ccc(O)cc1 | > 5 |
| O=C(CCc1nc2ccccc2[nH]1)NCc1nc(-c2ccncc2)n[nH]1 | > 5 |
| O=C(CC1Cc2ccccc2C1)NCc1nc(-c2c[nH]c3ncccc23)n[nH]1 | > 5 |
| CCCCc1ccc(C(=O)NCc2nc(-c3ccncc3)n[nH]2)cc1 | > 5 |
| O=C(NCc1c[nH]c(-c2ccncc2)n1)c1ccc(O)cc1O | ≤ 5 |
| CC(C)C(=O)Oc1ccc(C(=O)NCc2nc(-c3ccncc3)n[nH]2)c(O)c1 | ≤ 5 |
| CS(=O)(=O)Nc1ccc(C(=O)NCc2nc(-c3ccncc3)n[nH]2)cc1 | > 5 |
| O=C(NCc1nc(-c2c[nH]c3ncccc23)n[nH]1)c1cc([N+](=O)[O-])ccc1Cl | > 5 |
| O=C(NCc1nc(-c2ccncc2)n[nH]1)C1CCCN1C(=O)OCc1ccccc1 (stereo not drawn) | > 5 |
| O=C(NCc1nc(-c2c[nH]c3ncccc23)n[nH]1)c1cccc(F)c1 | > 5 |
| O=C(NCc1nc(-c2ccncc2)n[nH]1)c1ccncc1Cl | > 5 |
| CC(O)C(=O)NCc1nc(-c2c[nH]c3ncccc23)n[nH]1 (stereo not drawn) | > 5 |
| O=C(C=Cc1ccccc1O)NCc1nc(-c2c[nH]c3ncccc23)n[nH]1 | > 5 |
| O=C(NCc1nc(-c2c[nH]c3ncccc23)n[nH]1)c1ccc2ccccc2c1O | > 5 |
| O=C(NCc1nc(-c2c[nH]c3ncccc23)n[nH]1)c1ccc2cccc(O)c2n1 | > 5 |
| O=C(NCc1nc(-c2c[nH]c3ncccc23)n[nH]1)c1cccc(O)c1O | > 5 |
